Measurements: PMC13089524, “Development of SYK NanoBRET cellular target engagement assays for gain–of–function variants” (Frontiers in chemical biology, 2024)
Entries after “also recorded” stand apart in the source; their conditions may differ.

Experiments:
[1] = molecular target: T1, SYK (Homo sapiens, UniProt P43405); assay: Eurofins DiscoverX SYK enzymatic radiometric assay; assay type: biochemical; details: Km value for ATP, 9-pt dose-response
T1 construct: purchased Eurofins DiscoverX (contract assay service)
Description: Eurofins kinase enzymatic radiometric assays were executed at the Km value for ATP in dose–response (9-pt curve) format for SYK, included in Table 1 as enzymatic IC50 values.

[2] = molecular target: T2, SYK(WT)-NL (Homo sapiens, UniProt P43405); assay: NanoBRET assay in digitonin permeabilized HEK293 cells, SYK(WT)-NL; assay type: cell-based; details: fixed concentration of tracer 8, average ± SEM, read-out: IC50, SYK(variant)-NL WT
T2 construct: SYK tracers enable BRET with full-length SYK(WT) after digitonin permeabilization; host or cells: HEK293
Procedure: We performed NanoBRET tracer optimization to determine if the SYK tracers could effectively generate a BRET signal. […] To enable the NanoBRET assay using tracer 8 with cells permeabilized by digitonin, a tracer dose–response study was performed for each SYK(GoF) variant and SYK(WT) (Figure 3A), followed by tracer titration experiments (Figure 3B; Supplementary Figure S3). […] Initially, we determined the EC50 of tracer 8 for each SYK(GoF) variant and SYK(WT). […] Plates were incubated for 25 min at room temperature if digitonin was added or for 2 h at 37°C in 5% CO2 for the intact cell NanoBRET assay. […] For intact live cells in a 96-well plate, the 3X stock solution was prepared with 30 μL of NanoBRET NanoGlo substrate, 10 μL of extracellular NanoLuc inhibitor, and 4,960 μL of Opti-MEM without phenol red. For digitonin permeabilized live cells in a 96-well plate, the 3X stock solution was prepared with 30 μL of NanoBRET NanoGlo substrate and 4,970 μL of Opti-MEM without phenol red. Raw milliBRET units (mBU) were read on a GloMax Discover system (Promega) with a donor emission wavelength of 450 nm and an acceptor emission wavelength of 600 nm. mBU were calculated by dividing the acceptor emission values (600 nm) by the donor emission values (450 nm). For NanoBRET studies with SYK, background corrected mBU were calculated by subtracting the no tracer wells from the tracer-containing wells and multiplying by 1,000.
HEK293 cells were transfected with constructs of SYK(WT) or SYK(KD) tagged with NL on the C- or N-terminus and SYK GoF variants tagged with NL on the C-terminus. Tracer 8 (20X) was prepared from a 400 μM stock solution in DMSO with tracer dilution buffer (Promega, #N291B) and 20% DMSO, with a final assay plate concentration of 1% DMSO. 5 μL of 8 (20X) was added to each well, with exception of the no tracer control wells, with final plate concentrations of 0.5, 1, and 2 μM. 10 μL of digitonin (Fisher, 10X, 500 μg/mL) was added to specific wells to permeabilize the cells. The 10X digitonin stock was prepared by diluting a 40X DMSO solution of digitonin with room temperature Opti-MEM without phenol red, for a final assay plate concentration of 1% DMSO. SYK inhibitor stock solutions of MRL-SYKi (10X) were prepared from 10 mM DMSO stock solutions with room temperature Opti-MEM without phenol red, for final assay plate concentrations of 10 μM. Plates were incubated for 25 min at room temperature if digitonin was added or for 2 h at 37°C in 5% CO2 for the intact cell NanoBRET assay. Two technical replicates were plotted in a bar chart with the standard deviation represented as error bars on Graphpad Prism.

[3] = molecular target: T3, SYK(S550Y)-NL (Homo sapiens, UniProt P43405, S550Y); assay: NanoBRET assay in digitonin permeabilized HEK293 cells, SYK(S550Y)-NL; assay type: cell-based; details: fixed concentration of tracer 8, average ± SEM, read-out: IC50, SYK(variant)-NL S550Y
T3 construct: host or cells: HEK293
Procedure: (§1) We performed NanoBRET tracer optimization to determine if the SYK tracers could effectively generate a BRET signal. […] To enable the NanoBRET assay using tracer 8 with cells permeabilized by digitonin, a tracer dose–response study was performed for each SYK(GoF) variant and SYK(WT) (Figure 3A), followed by tracer titration experiments (Figure 3B; Supplementary Figure S3). […] Initially, we determined the EC50 of tracer 8 for each SYK(GoF) variant and SYK(WT). […] Plates were incubated for 25 min at room temperature if digitonin was added or for 2 h at 37°C in 5% CO2 for the intact cell NanoBRET assay. […] For intact live cells in a 96-well plate, the 3X stock solution was prepared with 30 μL of NanoBRET NanoGlo substrate, 10 μL of extracellular NanoLuc inhibitor, and 4,960 μL of Opti-MEM without phenol red. […] Raw milliBRET units (mBU) were read on a GloMax Discover system (Promega) with a donor emission wavelength of 450 nm and an acceptor emission wavelength of 600 nm. mBU were calculated by dividing the acceptor emission values (600 nm) by the donor emission values (450 nm). For NanoBRET studies with SYK, background corrected mBU were calculated by subtracting the no tracer wells from the tracer-containing wells and multiplying by 1,000. […]

[4] = molecular target: T4, SYK(S550F)-NL (Homo sapiens, UniProt P43405, S550F); assay: NanoBRET assay in digitonin permeabilized HEK293 cells, SYK(S550F)-NL; assay type: cell-based; details: fixed concentration of tracer 8, average ± SEM, read-out: IC50, SYK(variant)-NL S550F
T4 construct: host or cells: HEK293
Procedure: as §1

[5] = molecular target: T5, SYK(P342T)-NL (Homo sapiens, UniProt P43405, P342T); assay: NanoBRET assay in digitonin permeabilized HEK293 cells, SYK(P342T)-NL; assay type: cell-based; details: fixed concentration of tracer 8, average ± SEM, read-out: IC50, SYK(variant)-NL P342T
T5 construct: host or cells: HEK293
Procedure: as §1

[6] = molecular target: T6, SYK(A353T)-NL (Homo sapiens, UniProt P43405, A353T); assay: NanoBRET assay in digitonin permeabilized HEK293 cells, SYK(A353T)-NL; assay type: cell-based; details: fixed concentration of tracer 8, average ± SEM, read-out: IC50, SYK(variant)-NL A353T
T6 construct: host or cells: HEK293
Procedure: as §1

[7] = molecular target: T7, SYK(M450I)-NL (Homo sapiens, UniProt P43405, M450I); assay: NanoBRET assay in digitonin permeabilized HEK293 cells, SYK(M450I)-NL; assay type: cell-based; details: fixed concentration of tracer 8, average ± SEM, read-out: IC50, SYK(variant)-NL M450I
T7 construct: host or cells: HEK293
Procedure: as §1

[8] = molecular target: T3, SYK(S550Y)-NL; assay: NanoBRET cellular target engagement assay in intact live HEK293 cells, SYK(S550Y)-NL; assay type: cell-based; details: for IC50: tracer titration
Procedure: (§2) NL orientations used in the respective assays are indicated. […] Plates were incubated for 25 min at room temperature if digitonin was added or for 2 h at 37°C in 5% CO2 for the intact cell NanoBRET assay. […] For intact live cells in a 96-well plate, the 3X stock solution was prepared with 30 μL of NanoBRET NanoGlo substrate, 10 μL of extracellular NanoLuc inhibitor, and 4,960 μL of Opti-MEM without phenol red. For digitonin permeabilized live cells in a 96-well plate, the 3X stock solution was prepared with 30 μL of NanoBRET NanoGlo substrate and 4,970 μL of Opti-MEM without phenol red. Raw milliBRET units (mBU) were read on a GloMax Discover system (Promega) with a donor emission wavelength of 450 nm and an acceptor emission wavelength of 600 nm. mBU were calculated by dividing the acceptor emission values (600 nm) by the donor emission values (450 nm). For NanoBRET studies with SYK, background corrected mBU were calculated by subtracting the no tracer wells from the tracer-containing wells and multiplying by 1,000.
(§3) MRL-SYKi was used to compete away the NanoBRET signal produced with tracer 8. […] Tracer 8 was prepared in DMSO and DMEM without phenol red in 11-point dose-response format with 3 μM as the top concentration, with a final assay plate concentration of 1% DMSO. 10X stock solutions of MRL-SYKi were prepared from 10 mM DMSO stock solution with room temperature Opti-MEM without phenol red, for final assay plate concentrations of 10 μM. 10 μL of 8 (10X) was added to each well, with the exception of the no tracer control wells, and 10 μL of 10X solutions of MRL-SYKi was added to wells for tracer competition. One biological replicate was plotted in GraphPad Prism with [inhibitor] vs response (three parameters).
(§4) MRL-SYKi was tested in 11-point dose–response format with a top concentration of 10 μM. […] The final assay plate concentrations included 1% DMSO. 5 μL of 8 (20X) was added to each well, except the no tracer control wells, and 10 μL of 10X threefold diluted solutions of MRL-SYKi was added to wells. Two biological replicates were plotted in GraphPad Prism with log[inhibitor] vs response (three parameters) with the error bars indicating standard deviation.
(§5) Compounds were tested in 11-point dose–response format with a top concentration of 10 μM. Data are reported as IC50 ± standard error mean (SEM). One biological replicate was plotted in GraphPad Prism with log[inhibitor] vs response (three parameters), the three IC50’s were averaged and the SEM was calculated.

[9] = molecular target: T4, SYK(S550F)-NL; assay: NanoBRET cellular target engagement assay in intact live HEK293 cells, SYK(S550F)-NL; assay type: cell-based
Procedure: as §2, §3, §4, §5

[10] = molecular target: T5, SYK(P342T)-NL; assay: NanoBRET cellular target engagement assay in intact live HEK293 cells, SYK(P342T)-NL; assay type: cell-based
Procedure: as §2, §3, §4, §5

[11] = molecular target: T8, SYK(S550F) (Homo sapiens, UniProt P43405, S550F); assay: PhosphoSens SOX peptide kinase activity assay, SYK(S550F); assay type: biochemical; details: purified protein, 1 mM ATP
T8 construct: The full-length SYK GoF variants SYK(S550F) and SYK(P342T) along with SYK(WT) were purified from insect cells (Sf9); 6His (N, cleaved yes); GST (N, cleaved yes); made in house; host or cells: Sf9 insect cells (baculovirus, pFastbac1)

[12] = molecular target: T9, SYK(P342T) (Homo sapiens, UniProt P43405, P342T); assay: PhosphoSens SOX peptide kinase activity assay, SYK(P342T); assay type: biochemical; details: purified protein, 1 mM ATP
T9 construct: The full-length SYK GoF variants SYK(S550F) and SYK(P342T) along with SYK(WT) were purified from insect cells (Sf9); 6His (N, cleaved yes); GST (N, cleaved yes); made in house; host or cells: Sf9 insect cells (baculovirus, pFastbac1)

[13] = system: pSYK(Y525/526) in SW480 cells stably expressing SYK(S550Y); assay: SYK phosphorylation western blot in SW480 cells stably expressing SYK(S550Y); assay type: cell-based
Procedure: SW480 cells stably expressing S550Y variant were maintained as previously described ([Wang et al., 2021]). For SYK S550Y inhibition, cells were seeded in 12-well plate, at 10^6 cells/well. The next day, medium was replaced and MRL-SYK inhibitor was added at 10 μM and 100 nM for 20 h. Protein lysates were prepared and analyzed on Western blot as previously described ([Wang et al., 2021]).

[14] = system: kinases of the KINOMEscan panel; details: ref Sgc et al., 2024; cited from earlier work
[15] = system: SRC, NTRK1, NTRK3, FGR, FYN, FER, and JAK2; details: ref Sgc et al., 2024; cited from earlier work
[16] = system: GPCR scan and panel of 113 enzymes and receptors; details: at 10 μM; ref Sgc et al., 2024; cited from earlier work
[17] = ref Altman et al., 2011; cited from earlier work

With `Cc1cc(Nc2nccc(C)n2)cc(-c2cnc([C@@]3(O)CC[C@H](C(=O)O)C(C)(C)C3)s2)c1` [MRL-SYKi] as the compound, how does the IC50 [1] read?
Its IC50 is 30 nM.

And the IC50 [2]?
Its IC50 is 10 nM.

What about the IC50 [3] of the same compound?
Its IC50 is 2.1 ± 1 nM.

What about the IC50 [4] of the same compound?
The IC50 was 14 ± 5 nM.

What about the IC50 [5] of the same compound?
The IC50 was 4.6 ± 2.6 nM.

And the IC50 [6]?
Its IC50 is 10 ± 5 nM.

What about the IC50 [7] of the same compound?
The IC50 was 29 ± 6 nM.

And the Kd ([8]; linearized Cheng-Prusoff analysis, y-intercept, tracer 8, single experiment, read-out: KD, app SYK(S550Y))?
Its Kd is 27 nM.

And the IC50 ([8]; [Tracer] 7.8 nM, read-out: IC50, SYK(S550Y)-NL + 8 + MRL-SYKi)?
The IC50 was 27 nM.

What about the IC50 ([8]; [Tracer] 15.6 nM, read-out: IC50, SYK(S550Y)-NL + 8 + MRL-SYKi) of the same compound?
The IC50 was 27 nM.

What about the IC50 ([8]; [Tracer] 31.2 nM, read-out: IC50, SYK(S550Y)-NL + 8 + MRL-SYKi) of the same compound?
Its IC50 is 32 nM.

And the IC50 ([8]; [Tracer] 62.5 nM, read-out: IC50, SYK(S550Y)-NL + 8 + MRL-SYKi)?
The IC50 was 42 nM.

What about the IC50 ([8]; [Tracer] 125 nM, read-out: IC50, SYK(S550Y)-NL + 7 + MRL-SYKi) of the same compound?
The IC50 was 41 nM.

What about the IC50 ([8]; [Tracer] 125 nM, read-out: IC50, SYK(S550Y)-NL + 8 + MRL-SYKi) of the same compound?
Its IC50 is 74 nM.

What about the IC50 ([8]; [Tracer] 250 nM, read-out: IC50, SYK(S550Y)-NL + 7 + MRL-SYKi) of the same compound?
Its IC50 is 54 nM.

And the IC50 ([8]; [Tracer] 500 nM, read-out: IC50, SYK(S550Y)-NL + 7 + MRL-SYKi)?
The IC50 was 98 nM.

What about the IC50 ([8]; [Tracer] 1000 nM, read-out: IC50, SYK(S550Y)-NL + 7 + MRL-SYKi) of the same compound?
The IC50 was 220 nM.

And the IC50 ([9]; intact HEK293 cells, 125 nM tracer 8, average of triplicate ± SEM, read-out: SYK(S550F) IC50)?
The IC50 was 250 ± 48 nM.

And the Kd ([9]; linearized Cheng-Prusoff analysis, y-intercept, tracer 8, single experiment, read-out: KD, app SYK(S550F))?
Its Kd is 46 nM.

And the IC50 ([9]; tracer titration, [Tracer] 7.8 nM, read-out: IC50, SYK(S550F)-NL + 8 + MRL-SYKi)?
Its IC50 is 29 nM.

And the IC50 ([9]; tracer titration, [Tracer] 15.6 nM, read-out: IC50, SYK(S550F)-NL + 8 + MRL-SYKi)?
The IC50 was 44 nM.

And the IC50 ([9]; tracer titration, [Tracer] 31.2 nM, read-out: IC50, SYK(S550F)-NL + 8 + MRL-SYKi)?
The IC50 was 77 nM.

What about the IC50 ([9]; tracer titration, [Tracer] 62.5 nM, read-out: IC50, SYK(S550F)-NL + 8 + MRL-SYKi) of the same compound?
The IC50 was 98 nM.

What about the IC50 ([9]; tracer titration, [Tracer] 125 nM, read-out: IC50, SYK(S550F)-NL + 8 + MRL-SYKi) of the same compound?
The IC50 was 157 nM.

And the IC50 ([9]; tracer titration, [Tracer] 250 nM, read-out: IC50, SYK(S550F)-NL + 8 + MRL-SYKi)?
The IC50 was 190 nM.

And the IC50 ([10]; intact HEK293 cells, 125 nM tracer 8, average of triplicate ± SEM, read-out: SYK(P342T) IC50)?
Its IC50 is 410 ± 95 nM.

And the Kd ([10]; linearized Cheng-Prusoff analysis, y-intercept, tracer 8, single experiment, read-out: KD, app SYK(P342T))?
The Kd was 179 nM.

What about the IC50 ([10]; tracer titration, [Tracer] 15.6 nM, read-out: IC50, SYK(P342T)-NL + 8 + MRL-SYKi) of the same compound?
Its IC50 is 134 nM.

What about the IC50 ([10]; tracer titration, [Tracer] 31.2 nM, read-out: IC50, SYK(P342T)-NL + 8 + MRL-SYKi) of the same compound?
The IC50 was 194 nM.

And the IC50 ([10]; tracer titration, [Tracer] 62.5 nM, read-out: IC50, SYK(P342T)-NL + 8 + MRL-SYKi)?
The IC50 was 371 nM.

What about the IC50 ([10]; tracer titration, [Tracer] 125 nM, read-out: IC50, SYK(P342T)-NL + 8 + MRL-SYKi) of the same compound?
The IC50 was 365 nM.

And the IC50 ([10]; tracer titration, [Tracer] 250 nM, read-out: IC50, SYK(P342T)-NL + 8 + MRL-SYKi)?
The IC50 was 498 nM.

And the IC50 [11]?
Its IC50 is 63 nM.

And the IC50 [12]?
The IC50 was 95 nM.

And the “pSYK(Y525/526) levels via Western blot compared to untreated cells” value ([13]; 100 nM for 20 h)?
The value was “decrease in pSYK(Y525/526) levels; also recorded: decreased pSYK(Y525/526) levels”.

What about the “pSYK(Y525/526) levels via Western blot compared to untreated cells” value ([13]; 10 μM for 20 h) of the same compound?
The value was “decrease in pSYK(Y525/526) levels”.

And the “selectivity versus the protein kinase family in the KINOMEscan panel” value [14]?
Its value is “greater than 30 fold”.

What about the “off-target kinases less potent than SYK” value [15] of the same compound?
Its value is no less than 111 fold.

And the off-target inhibition [16]?
The off-target inhibition was “no off-target inhibition”.

What about the cellular activity [17] of the same compound?
The cellular activity was less than 100 nM.
